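GI50 = concentration required for 50% inhibition of growth. TGI: concentration producing complete growth inhibition.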
What was measured:
Test in all cases: NCI-60 cell line screen, 384-well format
LOX IMVI melanoma = test system: LOX IMVI melanoma
MOLT-4 leukemia = test system: MOLT-4 leukemia
IGROV1 ovarian = test system: IGROV1 ovarian
MCF7 breast = test system: MCF7 breast
U251 glioblastoma = test system: U251 glioblastoma
HCC-2998 colon = test system: HCC-2998 colon
UACC-257 melanoma = test system: UACC-257 melanoma
OVCAR-3 ovarian = test system: OVCAR-3 ovarian
SF-268 CNS = test system: SF-268 CNS
SK-MEL-5 melanoma = test system: SK-MEL-5 melanoma
SK-MEL-2 melanoma = test system: SK-MEL-2 melanoma
SF-539 CNS = test system: SF-539 CNS
OVCAR-4 ovarian = test system: OVCAR-4 ovarian

SMILES: CS(=O)(=O)c1ccc(C(=O)Nc2ccc(Cl)c(-c3ccccn3)c2)c(Cl)c1
- GI50 (LOX IMVI melanoma): 47.2 µM
- TGI (LOX IMVI melanoma): > 100 µM
- GI50 (MOLT-4 leukemia): 21.8 µM
- TGI (MOLT-4 leukemia): 46.3 µM
- GI50 (IGROV1 ovarian): 56.6 µM
- TGI (IGROV1 ovarian): > 100 µM
- GI50 (MCF7 breast): 35.3 µM
- TGI (MCF7 breast): > 82.8 µM
- GI50 (U251 glioblastoma): 49.5 µM
- TGI (U251 glioblastoma): > 100 µM
- GI50 (HCC-2998 colon): 24.6 µM
- TGI (HCC-2998 colon): 56.8 µM
- GI50 (UACC-257 melanoma): 49.6 µM
- TGI (UACC-257 melanoma): > 89.7 µM
- GI50 (OVCAR-3 ovarian): 35.9 µM
- TGI (OVCAR-3 ovarian): > 83 µM
- GI50 (SF-268 CNS): 45 µM
- TGI (SF-268 CNS): > 100 µM
- GI50 (SK-MEL-5 melanoma): 10.8 µM
- TGI (SK-MEL-5 melanoma): > 29.3 µM
- GI50 (SK-MEL-2 melanoma): 33.8 µM
- TGI (SK-MEL-2 melanoma): > 100 µM
- GI50 (SF-539 CNS): 49.1 µM
- TGI (SF-539 CNS): > 100 µM
- GI50 (OVCAR-4 ovarian): 32.6 µM
- TGI (OVCAR-4 ovarian): > 84.5 µM
